Numbers after ± are expanded uncertainties.

The source of these data is the NIST ThermoML archive (doi:10.1021/je400835u).

The conditions of data set [1]: 100 kPa, Liquid; for viscosity: Falling or rolling sphere viscometry; for mass density: Vibrating tube method.
Data set [2] can be described thus: xn = mol fraction of the nth substance listed. The conditions noted are these: 100 kPa, Liquid, x2 = 0; for viscosity: Falling or rolling sphere viscometry; for mass density: Vibrating tube method.

As a reminder, the viscosity is the internal friction of a fluid under shear. In general, mass density refers to the mass of a sample divided by its volume. For the molecule `CCCCCCCCCCCCCC` [tetradecane], the viscosity in data set [1] (293.15 K) was determined as 2.329 ± 0.019 mPa·s; in data set [1] (298.15 K) it was 2.096 ± 0.018 mPa·s; in data set [1] (303.15 K) it was 1.898 ± 0.017 mPa·s; in data set [1] (308.15 K), 1.729 ± 0.016 mPa·s; in data set [1] (313.15 K), 1.584 ± 0.015 mPa·s. The mass density stood at 763.09 ± 0.15 kg/m3 in data set [1] (293.15 K); 759.57 ± 0.15 kg/m3 in data set [1] (298.15 K); 756.03 ± 0.15 kg/m3 in data set [1] (303.15 K); 752.51 ± 0.16 kg/m3 in data set [1] (308.15 K); 748.98 ± 0.16 kg/m3 in data set [1] (313.15 K).
On to `CCCCC1CCCCC1` [butylcyclohexane], for which the viscosity in data set [1] (293.15 K) worked out at 1.296 ± 0.014 mPa·s; in data set [1] (298.15 K), 1.196 ± 0.013 mPa·s; in data set [1] (303.15 K), 1.107 ± 0.013 mPa·s; in data set [1] (308.15 K) it was 1.027 ± 0.013 mPa·s; in data set [1] (313.15 K) it was 0.958 ± 0.012 mPa·s. The mass density in data set [1] (293.15 K) was determined as 799.44 ± 0.15 kg/m3; in data set [1] (298.15 K), 795.7 ± 0.15 kg/m3; in data set [1] (303.15 K), 791.95 ± 0.15 kg/m3; in data set [1] (308.15 K) it was 788.19 ± 0.15 kg/m3; in data set [1] (313.15 K) it was 784.41 ± 0.15 kg/m3.
For `CCCCCCCC` [octane], the viscosity in data set [1] (293.15 K) turned out to be 0.546 ± 0.011 mPa·s; in data set [1] (298.15 K) it was 0.521 ± 0.011 mPa·s; in data set [1] (303.15 K), 0.49 ± 0.011 mPa·s; in data set [1] (308.15 K), 0.467 ± 0.011 mPa·s; in data set [1] (313.15 K) it was 0.442 ± 0.011 mPa·s. For the same molecule, the mass density in data set [1] (293.15 K) was 702.86 ± 0.17 kg/m3; in data set [1] (298.15 K) it was 698.85 ± 0.17 kg/m3; in data set [1] (303.15 K), 694.8 ± 0.17 kg/m3; in data set [1] (308.15 K), 690.73 ± 0.17 kg/m3; in data set [1] (313.15 K) it was 686.63 ± 0.17 kg/m3.
For the molecule `CCCCCCC` [heptane] + CCCCC1CCCCC1, the viscosity in data set [2] (293.15 K) came out at 0.421 ± 0.01 mPa·s; in data set [2] (298.15 K), 0.398 ± 0.01 mPa·s; in data set [2] (303.15 K) it was 0.378 ± 0.01 mPa·s; in data set [2] (308.15 K), 0.352 ± 0.01 mPa·s; in data set [2] (313.15 K), 0.337 ± 0.01 mPa·s. In addition, the mass density in data set [2] (293.15 K) is 683.99 ± 0.17 kg/m3; in data set [2] (298.15 K), 679.74 ± 0.18 kg/m3; in data set [2] (303.15 K), 675.41 ± 0.18 kg/m3; in data set [2] (308.15 K) it was 671.12 ± 0.18 kg/m3; in data set [2] (313.15 K), 666.92 ± 0.18 kg/m3.
Turning to `CCCCCCCCC` [nonane], the viscosity in data set [1] (293.15 K) is 0.725 ± 0.011 mPa·s; in data set [1] (298.15 K), 0.679 ± 0.011 mPa·s; in data set [1] (303.15 K), 0.639 ± 0.011 mPa·s; in data set [1] (308.15 K), 0.604 ± 0.011 mPa·s; in data set [1] (313.15 K), 0.572 ± 0.011 mPa·s. In addition, the mass density in data set [1] (293.15 K) was determined as 717.88 ± 0.16 kg/m3; in data set [1] (298.15 K), 714 ± 0.17 kg/m3; in data set [1] (303.15 K), 710.1 ± 0.17 kg/m3; in data set [1] (308.15 K), 706.19 ± 0.17 kg/m3; in data set [1] (313.15 K) it was 702.26 ± 0.17 kg/m3.
As for `CCCCCCCCC` [nonane] + CCCCC1CCCCC1, the viscosity in data set [2] (293.15 K) is 0.725 ± 0.011 mPa·s; in data set [2] (298.15 K) it was 0.679 ± 0.011 mPa·s; in data set [2] (303.15 K) it was 0.639 ± 0.011 mPa·s; in data set [2] (308.15 K) it was 0.604 ± 0.011 mPa·s; in data set [2] (313.15 K), 0.572 ± 0.011 mPa·s. The mass density in data set [2] (293.15 K) worked out at 717.88 ± 0.16 kg/m3; in data set [2] (298.15 K), 714 ± 0.17 kg/m3; in data set [2] (303.15 K) it was 710.1 ± 0.17 kg/m3; in data set [2] (308.15 K), 706.19 ± 0.17 kg/m3; in data set [2] (313.15 K) it was 702.26 ± 0.17 kg/m3.
With `CCCCCCCCCCCC` [dodecane] + CCCCC1CCCCC1, the viscosity in data set [2] (293.15 K) was 1.5 ± 0.015 mPa·s; in data set [2] (298.15 K), 1.376 ± 0.014 mPa·s; in data set [2] (303.15 K) it was 1.265 ± 0.013 mPa·s; in data set [2] (308.15 K) it was 1.167 ± 0.013 mPa·s; in data set [2] (313.15 K) it was 1.081 ± 0.013 mPa·s. Moreover, the mass density in data set [2] (293.15 K) is listed as 749 ± 0.16 kg/m3; in data set [2] (298.15 K) it was 745.38 ± 0.16 kg/m3; in data set [2] (303.15 K) it was 741.75 ± 0.16 kg/m3; in data set [2] (308.15 K), 738.12 ± 0.16 kg/m3; in data set [2] (313.15 K) it was 734.48 ± 0.16 kg/m3.
For `CCCCCCC` [heptane], the viscosity came to 0.421 ± 0.01 mPa·s in data set [1] (293.15 K); 0.398 ± 0.01 mPa·s in data set [1] (298.15 K); 0.378 ± 0.01 mPa·s in data set [1] (303.15 K); 0.352 ± 0.01 mPa·s in data set [1] (308.15 K); 0.337 ± 0.01 mPa·s in data set [1] (313.15 K). Further, the mass density is listed as 683.99 ± 0.17 kg/m3 in data set [1] (293.15 K); 679.74 ± 0.18 kg/m3 in data set [1] (298.15 K); 675.41 ± 0.18 kg/m3 in data set [1] (303.15 K); 671.12 ± 0.18 kg/m3 in data set [1] (308.15 K); 666.92 ± 0.18 kg/m3 in data set [1] (313.15 K).
Regarding `CCCCCCCCCCCC` [dodecane], the viscosity was found to be 1.5 ± 0.015 mPa·s in data set [1] (293.15 K); 1.376 ± 0.014 mPa·s in data set [1] (298.15 K); 1.265 ± 0.013 mPa·s in data set [1] (303.15 K); 1.167 ± 0.013 mPa·s in data set [1] (308.15 K); 1.081 ± 0.013 mPa·s in data set [1] (313.15 K). The mass density is given as 749 ± 0.16 kg/m3 in data set [1] (293.15 K); 745.38 ± 0.16 kg/m3 in data set [1] (298.15 K); 741.75 ± 0.16 kg/m3 in data set [1] (303.15 K); 738.12 ± 0.16 kg/m3 in data set [1] (308.15 K); 734.48 ± 0.16 kg/m3 in data set [1] (313.15 K).
Consider `CCCCCCCCCC` [decane], for which the viscosity in data set [1] (293.15 K) amounted to 0.93 ± 0.012 mPa·s; in data set [1] (298.15 K) it was 0.864 ± 0.012 mPa·s; in data set [1] (303.15 K), 0.806 ± 0.012 mPa·s; in data set [1] (308.15 K) it was 0.755 ± 0.011 mPa·s; in data set [1] (313.15 K), 0.709 ± 0.011 mPa·s. In addition, the mass density was 730.52 ± 0.16 kg/m3 in data set [1] (293.15 K); 726.76 ± 0.16 kg/m3 in data set [1] (298.15 K); 722.97 ± 0.16 kg/m3 in data set [1] (303.15 K); 719.17 ± 0.16 kg/m3 in data set [1] (308.15 K); 715.36 ± 0.17 kg/m3 in data set [1] (313.15 K).
With `CCCCCCCCCCCCCC` [tetradecane] + CCCCC1CCCCC1, the viscosity in data set [2] (293.15 K) is given as 2.329 ± 0.019 mPa·s; in data set [2] (298.15 K), 2.096 ± 0.018 mPa·s; in data set [2] (303.15 K), 1.898 ± 0.017 mPa·s; in data set [2] (308.15 K), 1.729 ± 0.016 mPa·s; in data set [2] (313.15 K) it was 1.584 ± 0.015 mPa·s. The mass density in data set [2] (293.15 K) was determined as 763.09 ± 0.15 kg/m3; in data set [2] (298.15 K), 759.57 ± 0.15 kg/m3; in data set [2] (303.15 K), 756.03 ± 0.15 kg/m3; in data set [2] (308.15 K), 752.51 ± 0.16 kg/m3; in data set [2] (313.15 K), 748.98 ± 0.16 kg/m3.
For `CCCCCCCCCC` [decane] + CCCCC1CCCCC1, the viscosity in data set [2] (293.15 K) is given as 0.93 ± 0.012 mPa·s; in data set [2] (298.15 K) it was 0.864 ± 0.012 mPa·s; in data set [2] (303.15 K) it was 0.806 ± 0.012 mPa·s; in data set [2] (308.15 K), 0.755 ± 0.011 mPa·s; in data set [2] (313.15 K) it was 0.709 ± 0.011 mPa·s. Also, the mass density in data set [2] (293.15 K) was 730.52 ± 0.16 kg/m3; in data set [2] (298.15 K), 726.76 ± 0.16 kg/m3; in data set [2] (303.15 K) it was 722.97 ± 0.16 kg/m3; in data set [2] (308.15 K), 719.17 ± 0.16 kg/m3; in data set [2] (313.15 K), 715.36 ± 0.17 kg/m3.
Take `CCCCCCCC` [octane] + CCCCC1CCCCC1: the viscosity was 0.546 ± 0.011 mPa·s in data set [2] (293.15 K); 0.521 ± 0.011 mPa·s in data set [2] (298.15 K); 0.49 ± 0.011 mPa·s in data set [2] (303.15 K); 0.467 ± 0.011 mPa·s in data set [2] (308.15 K); 0.442 ± 0.011 mPa·s in data set [2] (313.15 K). Moreover, the mass density in data set [2] (293.15 K) is 702.86 ± 0.17 kg/m3; in data set [2] (298.15 K), 698.85 ± 0.17 kg/m3; in data set [2] (303.15 K), 694.8 ± 0.17 kg/m3; in data set [2] (308.15 K) it was 690.73 ± 0.17 kg/m3; in data set [2] (313.15 K), 686.63 ± 0.17 kg/m3.
